# Results taken from paper PMC9986241 (Signal Transduction and Targeted Therapy, 2023).
# Legend:
# [1] = molecular target: T1, B-Raf(V599E)(h) (Homo sapiens, UniProt P15056, V600E); assay: KinaseProfiler enzyme profiling; assay type: biochemical
# T1 construct: purchased Eurofins KinaseProfiler
# Procedure: (§1) Enzyme profiling services were provided by KinaseProfiler™ (Eurofin, Brussels, Belgium). The concentration of erianin was 100 nM, and total 70 kinases were tested in this in vitro screening and profiling services (2 repetitions). For more details, refer to the manufacturer’s instructions (www.eurofinsdiscoveryservices.com).
# [2] = molecular target: T2, CDK6/cyclinD3(h) (Homo sapiens, UniProt Q00534); assay: KinaseProfiler enzyme profiling; assay type: biochemical
# T2 construct: purchased Eurofins KinaseProfiler
# Procedure: as §1
# [3] = molecular target: T3, CaMKIV(h) (Homo sapiens, UniProt Q16566); assay: KinaseProfiler enzyme profiling; assay type: biochemical
# T3 construct: purchased Eurofins KinaseProfiler
# Procedure: as §1
# [4] = molecular target: T4, EGFR(L861Q)(h) (Homo sapiens, UniProt P00533, L861Q); assay: KinaseProfiler enzyme profiling; assay type: biochemical
# T4 construct: purchased Eurofins KinaseProfiler
# Procedure: as §1
# [5] = molecular target: T5, EphB4(h) (Homo sapiens, UniProt P54760); assay: KinaseProfiler enzyme profiling; assay type: biochemical
# T5 construct: purchased Eurofins KinaseProfiler
# Procedure: as §1
# [6] = molecular target: T6, FGFR1(h) (Homo sapiens, UniProt P11362); assay: KinaseProfiler enzyme profiling; assay type: biochemical
# T6 construct: purchased Eurofins KinaseProfiler
# Procedure: as §1
# [7] = molecular target: T7, GSK3β(h) (Homo sapiens, UniProt P49841); assay: KinaseProfiler enzyme profiling; assay type: biochemical
# T7 construct: purchased Eurofins KinaseProfiler
# Procedure: as §1
# [8] = molecular target: T8, MSK1(h) (Homo sapiens, UniProt O75582); assay: KinaseProfiler enzyme profiling; assay type: biochemical
# T8 construct: purchased Eurofins KinaseProfiler
# Procedure: as §1
# [9] = molecular target: T9, NEK2(h) (Homo sapiens, UniProt P51955); assay: KinaseProfiler enzyme profiling; assay type: biochemical
# T9 construct: purchased Eurofins KinaseProfiler
# Procedure: as §1
# [10] = molecular target: T10, cSRC(h) (Homo sapiens, UniProt P12931); assay: KinaseProfiler enzyme profiling; assay type: biochemical
# T10 construct: purchased Eurofins KinaseProfiler
# Procedure: as §1
# [11] = molecular target: T11, CDK4/cyclinD3(h) (Homo sapiens, UniProt P11802); assay: KinaseProfiler enzyme profiling; assay type: biochemical
# T11 construct: purchased Eurofins KinaseProfiler
# Procedure: as §1
# [12] = molecular target: T12, FAK(h) (Homo sapiens, UniProt Q05397); assay: KinaseProfiler enzyme profiling; assay type: biochemical
# T12 construct: purchased Eurofins KinaseProfiler
# Procedure: as §1
# [13] = molecular target: T13, IKKβ(h) (Homo sapiens, UniProt O14920); assay: KinaseProfiler enzyme profiling; assay type: biochemical
# T13 construct: purchased Eurofins KinaseProfiler
# Procedure: as §1
# [14] = molecular target: T14, JAK3(h) (Homo sapiens, UniProt P52333); assay: KinaseProfiler enzyme profiling; assay type: biochemical
# T14 construct: purchased Eurofins KinaseProfiler
# T14 sequence (P52333 whole entry): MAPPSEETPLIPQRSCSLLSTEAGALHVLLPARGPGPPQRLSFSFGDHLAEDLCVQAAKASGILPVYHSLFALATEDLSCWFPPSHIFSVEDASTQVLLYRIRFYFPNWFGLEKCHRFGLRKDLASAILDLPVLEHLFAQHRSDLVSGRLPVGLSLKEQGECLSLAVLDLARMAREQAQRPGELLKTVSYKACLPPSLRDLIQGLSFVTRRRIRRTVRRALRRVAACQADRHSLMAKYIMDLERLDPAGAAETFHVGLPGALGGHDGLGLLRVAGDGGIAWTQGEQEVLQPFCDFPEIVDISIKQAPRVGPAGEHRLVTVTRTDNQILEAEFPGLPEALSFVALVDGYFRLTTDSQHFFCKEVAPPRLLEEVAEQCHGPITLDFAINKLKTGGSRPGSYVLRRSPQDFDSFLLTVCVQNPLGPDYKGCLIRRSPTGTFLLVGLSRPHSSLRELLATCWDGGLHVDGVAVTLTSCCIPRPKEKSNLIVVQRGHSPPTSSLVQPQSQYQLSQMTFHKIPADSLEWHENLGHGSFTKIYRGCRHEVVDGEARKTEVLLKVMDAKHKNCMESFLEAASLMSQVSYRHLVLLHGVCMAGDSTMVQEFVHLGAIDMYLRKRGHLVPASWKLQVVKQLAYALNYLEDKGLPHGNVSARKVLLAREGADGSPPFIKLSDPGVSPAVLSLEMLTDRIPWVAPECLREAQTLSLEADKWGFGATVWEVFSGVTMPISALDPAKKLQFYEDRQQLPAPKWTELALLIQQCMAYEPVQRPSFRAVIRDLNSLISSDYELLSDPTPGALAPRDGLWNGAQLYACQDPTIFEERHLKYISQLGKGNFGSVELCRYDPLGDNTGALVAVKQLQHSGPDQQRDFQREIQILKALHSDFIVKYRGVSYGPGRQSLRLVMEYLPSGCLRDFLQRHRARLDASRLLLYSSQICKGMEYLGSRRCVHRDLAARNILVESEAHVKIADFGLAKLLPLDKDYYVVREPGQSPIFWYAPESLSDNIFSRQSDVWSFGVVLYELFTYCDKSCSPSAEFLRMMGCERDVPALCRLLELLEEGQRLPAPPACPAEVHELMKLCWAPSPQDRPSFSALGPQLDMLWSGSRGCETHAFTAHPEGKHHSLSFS
# Procedure: as §1
# [15] = molecular target: T15, JNK1α1(h) (Homo sapiens, UniProt P45983); assay: KinaseProfiler enzyme profiling; assay type: biochemical
# T15 construct: purchased Eurofins KinaseProfiler
# Procedure: as §1
# [16] = molecular target: T16, JNK2α2(h) (Homo sapiens, UniProt P45984); assay: KinaseProfiler enzyme profiling; assay type: biochemical
# T16 construct: purchased Eurofins KinaseProfiler
# Procedure: as §1
# [17] = molecular target: T17, PAK3(h) (Homo sapiens, UniProt O75914); assay: KinaseProfiler enzyme profiling; assay type: biochemical
# T17 construct: purchased Eurofins KinaseProfiler
# T17 sequence (O75914 whole entry): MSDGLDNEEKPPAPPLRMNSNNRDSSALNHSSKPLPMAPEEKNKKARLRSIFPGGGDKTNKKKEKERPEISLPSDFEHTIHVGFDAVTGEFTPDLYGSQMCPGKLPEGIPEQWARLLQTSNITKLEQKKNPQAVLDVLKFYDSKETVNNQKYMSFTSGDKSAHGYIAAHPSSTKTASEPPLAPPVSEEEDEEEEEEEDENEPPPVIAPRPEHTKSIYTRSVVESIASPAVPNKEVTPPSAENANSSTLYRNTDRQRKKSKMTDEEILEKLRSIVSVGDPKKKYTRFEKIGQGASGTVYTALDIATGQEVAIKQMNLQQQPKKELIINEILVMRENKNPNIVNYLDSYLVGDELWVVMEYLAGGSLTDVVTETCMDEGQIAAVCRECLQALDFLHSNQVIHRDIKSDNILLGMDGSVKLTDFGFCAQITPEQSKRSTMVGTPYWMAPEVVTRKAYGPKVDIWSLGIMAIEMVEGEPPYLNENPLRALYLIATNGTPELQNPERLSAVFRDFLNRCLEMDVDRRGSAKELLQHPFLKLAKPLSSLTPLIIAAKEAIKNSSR
# Procedure: as §1
# [18] = molecular target: T18, PDGFRα(h) (Homo sapiens, UniProt P16234); assay: KinaseProfiler enzyme profiling; assay type: biochemical
# T18 construct: purchased Eurofins KinaseProfiler
# T18 sequence (P16234 24-1089): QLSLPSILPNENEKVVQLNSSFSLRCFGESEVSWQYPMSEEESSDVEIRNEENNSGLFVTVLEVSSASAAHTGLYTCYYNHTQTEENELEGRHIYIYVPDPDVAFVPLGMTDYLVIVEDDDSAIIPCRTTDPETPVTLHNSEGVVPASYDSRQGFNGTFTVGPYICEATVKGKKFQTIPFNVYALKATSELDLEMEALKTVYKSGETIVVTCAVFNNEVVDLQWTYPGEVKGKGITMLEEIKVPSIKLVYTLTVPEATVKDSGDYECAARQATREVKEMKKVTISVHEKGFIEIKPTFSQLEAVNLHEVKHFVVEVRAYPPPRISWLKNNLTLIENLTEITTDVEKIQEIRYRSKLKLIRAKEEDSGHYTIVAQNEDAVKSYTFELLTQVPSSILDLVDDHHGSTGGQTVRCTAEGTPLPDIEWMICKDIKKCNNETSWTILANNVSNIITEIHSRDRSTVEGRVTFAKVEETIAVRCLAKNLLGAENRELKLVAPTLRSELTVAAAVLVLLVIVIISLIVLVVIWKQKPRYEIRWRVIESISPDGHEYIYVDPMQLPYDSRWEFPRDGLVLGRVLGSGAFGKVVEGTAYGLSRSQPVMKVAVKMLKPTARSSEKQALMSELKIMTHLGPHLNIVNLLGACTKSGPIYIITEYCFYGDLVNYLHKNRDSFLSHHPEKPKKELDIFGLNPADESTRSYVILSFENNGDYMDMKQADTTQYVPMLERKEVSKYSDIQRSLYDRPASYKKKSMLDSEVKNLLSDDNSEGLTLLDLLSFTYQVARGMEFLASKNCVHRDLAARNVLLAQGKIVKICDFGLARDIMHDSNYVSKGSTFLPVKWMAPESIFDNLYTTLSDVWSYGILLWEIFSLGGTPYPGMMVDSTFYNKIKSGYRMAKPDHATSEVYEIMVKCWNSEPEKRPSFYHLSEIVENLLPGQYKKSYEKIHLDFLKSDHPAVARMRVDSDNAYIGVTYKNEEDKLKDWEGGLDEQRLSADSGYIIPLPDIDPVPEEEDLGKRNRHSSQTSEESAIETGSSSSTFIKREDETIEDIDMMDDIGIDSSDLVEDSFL
# Procedure: as §1
# [19] = molecular target: T19, PDGFRβ(h) (Homo sapiens, UniProt P09619); assay: KinaseProfiler enzyme profiling; assay type: biochemical
# T19 construct: purchased Eurofins KinaseProfiler
# Procedure: as §1
# [20] = molecular target: T20, PKBβ(h) (Homo sapiens, UniProt P31751); assay: KinaseProfiler enzyme profiling; assay type: biochemical
# T20 construct: purchased Eurofins KinaseProfiler
# T20 sequence (P31751 whole entry): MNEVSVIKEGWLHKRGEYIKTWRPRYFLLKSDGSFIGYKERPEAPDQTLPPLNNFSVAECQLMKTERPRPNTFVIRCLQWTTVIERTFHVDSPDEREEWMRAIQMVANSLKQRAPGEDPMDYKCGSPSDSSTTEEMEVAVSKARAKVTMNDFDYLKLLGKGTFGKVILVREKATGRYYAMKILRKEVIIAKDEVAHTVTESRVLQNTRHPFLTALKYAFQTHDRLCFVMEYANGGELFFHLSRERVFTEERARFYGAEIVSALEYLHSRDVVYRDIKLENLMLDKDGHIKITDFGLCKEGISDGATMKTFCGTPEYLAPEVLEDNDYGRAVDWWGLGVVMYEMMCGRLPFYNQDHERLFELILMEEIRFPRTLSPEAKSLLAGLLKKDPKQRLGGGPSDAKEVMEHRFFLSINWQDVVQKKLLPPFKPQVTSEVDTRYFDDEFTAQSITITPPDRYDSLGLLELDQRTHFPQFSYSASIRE
# Procedure: as §1
# [21] = molecular target: T21, ROCK-I(h) (Homo sapiens, UniProt Q13464); assay: KinaseProfiler enzyme profiling; assay type: biochemical
# T21 construct: purchased Eurofins KinaseProfiler
# Procedure: as §1
# [22] = molecular target: T22, ROCK-II(h) (Homo sapiens, UniProt O75116); assay: KinaseProfiler enzyme profiling; assay type: biochemical
# T22 construct: purchased Eurofins KinaseProfiler
# T22 sequence (O75116 whole entry): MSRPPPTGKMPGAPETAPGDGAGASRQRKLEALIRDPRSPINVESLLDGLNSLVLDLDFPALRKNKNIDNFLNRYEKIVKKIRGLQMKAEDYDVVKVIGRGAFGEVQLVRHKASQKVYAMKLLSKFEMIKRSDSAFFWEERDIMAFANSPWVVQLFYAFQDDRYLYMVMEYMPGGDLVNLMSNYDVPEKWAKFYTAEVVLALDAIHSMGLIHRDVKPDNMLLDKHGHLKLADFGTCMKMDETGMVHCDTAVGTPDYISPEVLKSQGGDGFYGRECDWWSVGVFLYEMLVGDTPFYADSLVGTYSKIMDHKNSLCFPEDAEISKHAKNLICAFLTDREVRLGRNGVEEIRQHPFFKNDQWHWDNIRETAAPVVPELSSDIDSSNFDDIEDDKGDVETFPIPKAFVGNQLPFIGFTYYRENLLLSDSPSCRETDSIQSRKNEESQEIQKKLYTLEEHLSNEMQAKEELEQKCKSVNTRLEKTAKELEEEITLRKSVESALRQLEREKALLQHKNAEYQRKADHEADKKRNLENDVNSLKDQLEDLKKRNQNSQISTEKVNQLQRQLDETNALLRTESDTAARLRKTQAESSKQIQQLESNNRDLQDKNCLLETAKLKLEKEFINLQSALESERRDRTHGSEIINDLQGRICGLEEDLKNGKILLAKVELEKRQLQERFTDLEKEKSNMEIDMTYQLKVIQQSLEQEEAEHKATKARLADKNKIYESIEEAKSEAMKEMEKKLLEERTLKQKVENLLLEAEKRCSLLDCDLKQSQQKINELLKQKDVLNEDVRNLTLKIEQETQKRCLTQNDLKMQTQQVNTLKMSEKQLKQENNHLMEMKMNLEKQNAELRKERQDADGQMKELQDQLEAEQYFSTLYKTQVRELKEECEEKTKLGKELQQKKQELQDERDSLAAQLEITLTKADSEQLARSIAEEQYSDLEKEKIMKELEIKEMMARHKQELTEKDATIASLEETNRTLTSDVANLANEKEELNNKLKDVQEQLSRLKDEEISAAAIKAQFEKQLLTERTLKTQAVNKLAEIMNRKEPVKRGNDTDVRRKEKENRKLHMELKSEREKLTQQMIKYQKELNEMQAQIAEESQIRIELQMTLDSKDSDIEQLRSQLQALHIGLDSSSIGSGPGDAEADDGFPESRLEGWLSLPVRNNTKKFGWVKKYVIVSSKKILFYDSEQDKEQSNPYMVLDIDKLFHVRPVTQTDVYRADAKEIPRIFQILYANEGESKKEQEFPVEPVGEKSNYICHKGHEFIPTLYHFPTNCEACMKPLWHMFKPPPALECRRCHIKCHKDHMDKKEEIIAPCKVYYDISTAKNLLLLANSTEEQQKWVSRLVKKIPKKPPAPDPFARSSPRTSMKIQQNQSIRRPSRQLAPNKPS
# Procedure: as §1
# [23] = system: melanoma PDX; assay: Patient-derived xenograft (PDX); assay type: in vivo
# Procedure: Fig. 7 Erianin exerts antitumor efficacy in melanoma and colorectal cancer in vivo. a Tumor pharmacodynamic assay was performed in tumor-bearing NPG mice (tumor has been passaged from melanoma patient to mice for three generations). The photographs show tumors from melanoma PDX mice treated with vehicle or drugs. b The effect of erianin on the volume of PDX tumors over time (within 78 days) was plotted. Vehicle, erianin (50 mg/kg, once a day), vemurafenib (50 mg/kg, once a day), erianin and vemurafenib combination therapy, cobimetinib (5 mg/kg, twice a week) or vemurafenib and cobimetinib combination therapy (once a day and twice a week, respectively) were administered by oral gavage, n = 8 in each group. Tumor volume was measured once a week. […] Scale bars: 20 μm. One-way ANOVA test. ***p < 0.001. e Antitumor efficacy of erianin with or without immunity using B16F10 cell xenograft in C57BL-6J mouse. f, g Trend of tumor volume over time and tumor weight was measured after treatment on the last day of the study.
# [24] = system: B16F10 CDX; assay: B16F10 cell xenograft; assay type: in vivo, C57BL-6J mice
# Source text: Decrease of phospho-MEK1/2 was only observed in erianin and erianin/vemurafenib dual-therapy group, and even all erianin, erianin/vemurafenib dual-therapy, cobimetinib, and cobimetinib/vemurafenib dual-therapy group inhibited phosphorylation of ERK1/2 (Fig. 7d). […] Several clinical studies reveal that immune checkpoint therapies PD-1/PD-L1 synergistically promote RAF inhibitor in treatment of melanoma. Therefore, we checked the immune response involved in antitumor effect of erianin in vivo. After immunosuppression by hydrocortisone (50 mg/kg) for 1 week, B16F10 cell was implanted into C57BL-6J mice followed by vehicle or drug treatment. […]
# Fig. 7 Erianin exerts antitumor efficacy in melanoma and colorectal cancer in vivo. a Tumor pharmacodynamic assay was performed in tumor-bearing NPG mice (tumor has been passaged from melanoma patient to mice for three generations). […] Tumor volume was measured once a week. […] One-way ANOVA test. ***p < 0.001. e Antitumor efficacy of erianin with or without immunity using B16F10 cell xenograft in C57BL-6J mouse. f, g Trend of tumor volume over time and tumor weight was measured after treatment on the last day of the study.
# Peripheral blood or spleen lymphocytes (CD8a^+, CD4^+, and NK cell) in B16F10 CDX model after treated with erianin were quantified using BD FACSAria^TM III cell sorter. […]
# T1 sequence (P15056 416-766 V600E limits assumed): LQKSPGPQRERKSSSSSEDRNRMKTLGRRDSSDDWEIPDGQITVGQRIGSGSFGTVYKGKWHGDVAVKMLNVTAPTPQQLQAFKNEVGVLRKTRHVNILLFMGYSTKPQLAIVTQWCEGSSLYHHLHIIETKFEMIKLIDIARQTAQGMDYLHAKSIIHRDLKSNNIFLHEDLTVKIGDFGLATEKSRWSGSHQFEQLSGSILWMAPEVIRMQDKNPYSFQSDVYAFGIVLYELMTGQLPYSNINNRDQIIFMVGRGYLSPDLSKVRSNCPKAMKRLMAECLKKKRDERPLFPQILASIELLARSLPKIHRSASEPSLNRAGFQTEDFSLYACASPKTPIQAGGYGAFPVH
smiles,measurement,setting,value
COc1cc2oc(-c3ccc(O)c(O)c3)cc(=O)c2c(O)c1OC [Cirsiliol],activity at 10 µM,[1]; 10 µM,106%
same,activity at 10 µM,[2],101%
same,activity at 10 µM,[3]; 10 µM,93%
same,activity at 10 µM,[4]; 10 µM,108%
same,activity at 10 µM,[5]; 10 µM,86%
same,activity at 10 µM,[6]; 10 µM,103%
same,activity at 10 µM,[7]; 10 µM,115%
same,activity at 10 µM,[8],106%
same,activity at 10 µM,[9],105%
same,activity at 10 µM,[10],133%
COc1ccc(CCc2cc(OC)c(OC)c(OC)c2)cc1O [Erianin],activity at 0.1 µM,[1],109%
same,activity at 0.1 µM,[11],105%
same,activity at 0.1 µM,[3],91%
same,activity at 0.1 µM,[4],93%
same,activity at 0.1 µM,[5],108%
same,activity at 0.1 µM,[12],89%
same,activity at 0.1 µM,[6],118%
same,activity at 0.1 µM,[7],99%
same,activity at 0.1 µM,[13],95%
same,activity at 0.1 µM,[14],98%
same,activity at 0.1 µM,[15],101%
same,activity at 0.1 µM,[16],91%
same,activity at 0.1 µM,[17],99%
same,activity at 0.1 µM,[18],91%
same,activity at 0.1 µM,[19],133%
same,activity at 0.1 µM,[20],97%
same,activity at 0.1 µM,[21],125%
same,activity at 0.1 µM,[22],112%
same,body weight,"[23]; 50 mg/kg once a day, oral gavage",without significant changes
same,toxicity sign (HE staining),[23]; HE staining of liver and spleen,neither erianin group nor erianin-vemurafenib combination therapy showed toxicity sign
same,tumor volume,"[23]; oral gavage, erianin, vemurafenib 50 mg/kg once a day, cobimetinib 5 mg/kg twice a week, within 78 days",significant decrease
same,"CD8a+, CD4+ T cells, and NK cells",[24]; flow cytometry after erianin treatment,increased significantly
same,tumor growth,[24]; monotherapy,inhibited tumor growth
C=C1C(=O)[C@]23[C@H](O)[C@H]1CC[C@H]2[C@@]12CO[C@]3(O)[C@@H](O)[C@@H]1C(C)(C)CC[C@@H]2O [Oridonin],activity at 10 µM,[11]; 10 µM,109%
same,activity at 10 µM,[2],69%
same,activity at 10 µM,[12]; 10 µM,76%
same,activity at 10 µM,[13]; 10 µM,105%
same,activity at 10 µM,[14]; 10 µM,89%
same,activity at 10 µM,[15]; 10 µM,107%
same,activity at 10 µM,[16]; 10 µM,115%
same,activity at 10 µM,[8],93%
same,activity at 10 µM,[9],90%
same,activity at 10 µM,[17]; 10 µM,95%
same,activity at 10 µM,[18]; 10 µM,71%
same,activity at 10 µM,[19]; 10 µM,94%
same,activity at 10 µM,[20]; 10 µM,106%
same,activity at 10 µM,[21]; 10 µM,86%
same,activity at 10 µM,[22]; 10 µM,88%
same,activity at 10 µM,[10],59%
